Measurements published in patent US10246429B2, “Vinyl fluoride cyclopropyl fused thiazin-2-amine compounds as beta-secretase inhibitors and methods of use” (AMGEN INC., priority 2015, dated 2019).

Experiments:
[1] = target: T1, BACE1 (Homo sapiens (Human), UniProt P56817); experiment: In vitro enzymatic BACE1 FRET assay; assay type: biochemical; conditions: read-out: IC50 IP (μM) BACE1 Enzyme
Target sequence in this assay (P56817 46-501): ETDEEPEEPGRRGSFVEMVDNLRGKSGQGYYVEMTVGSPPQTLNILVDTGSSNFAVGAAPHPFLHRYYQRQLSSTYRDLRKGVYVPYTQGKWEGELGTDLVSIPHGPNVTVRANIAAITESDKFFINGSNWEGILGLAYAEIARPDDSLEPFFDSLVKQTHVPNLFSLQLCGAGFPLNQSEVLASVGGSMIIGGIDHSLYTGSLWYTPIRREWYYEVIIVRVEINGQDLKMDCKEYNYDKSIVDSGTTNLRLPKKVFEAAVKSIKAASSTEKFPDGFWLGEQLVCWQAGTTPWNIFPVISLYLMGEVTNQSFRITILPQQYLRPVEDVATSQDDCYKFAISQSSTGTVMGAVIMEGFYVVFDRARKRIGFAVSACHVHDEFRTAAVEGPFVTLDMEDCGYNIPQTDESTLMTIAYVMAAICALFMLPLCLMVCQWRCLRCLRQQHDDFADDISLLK
Excerpt: (§1) In Vitro Enzymatic BACE1 and BACE2 FRET (Fluorescence Resonance Energy Transfer) Assays (Enzyme Assay Data in Table 1)

[2] = target: T1, BACE1; experiment: BACE1 cell assay; assay type: cell-based
Target sequence in this assay (P56817 46-501, species assumed): as the sequence (P56817 46-501) above

[3] = target: BACE2 (Homo sapiens (Human), UniProt Q9Y5Z0); experiment: In vitro enzymatic BACE2 FRET assay; assay type: biochemical; conditions: read-out: IC50 IP (μM) BACE2 Enzyme
Sequence of BACE2 (Q9Y5Z0 63-518): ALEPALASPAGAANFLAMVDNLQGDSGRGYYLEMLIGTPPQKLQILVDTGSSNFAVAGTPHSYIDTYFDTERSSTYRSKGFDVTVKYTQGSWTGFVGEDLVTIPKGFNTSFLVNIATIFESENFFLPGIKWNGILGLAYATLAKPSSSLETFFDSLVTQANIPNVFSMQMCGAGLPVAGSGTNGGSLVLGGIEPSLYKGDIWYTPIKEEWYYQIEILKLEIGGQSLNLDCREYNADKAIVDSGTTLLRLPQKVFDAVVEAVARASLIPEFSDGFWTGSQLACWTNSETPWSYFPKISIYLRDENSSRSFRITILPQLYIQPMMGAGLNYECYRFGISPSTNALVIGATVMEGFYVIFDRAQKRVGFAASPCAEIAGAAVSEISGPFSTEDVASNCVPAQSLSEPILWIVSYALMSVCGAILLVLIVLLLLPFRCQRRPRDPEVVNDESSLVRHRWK
Excerpt: as §1

[4] = target: Cathepsin D (CatD) (Homo sapiens (Human), UniProt P07339); experiment: CatD assay; assay type: biochemical; conditions: read-out: IC50 IP (μM) CatD
Sequence of Cathepsin D (CatD) (P07339 65-412, species assumed): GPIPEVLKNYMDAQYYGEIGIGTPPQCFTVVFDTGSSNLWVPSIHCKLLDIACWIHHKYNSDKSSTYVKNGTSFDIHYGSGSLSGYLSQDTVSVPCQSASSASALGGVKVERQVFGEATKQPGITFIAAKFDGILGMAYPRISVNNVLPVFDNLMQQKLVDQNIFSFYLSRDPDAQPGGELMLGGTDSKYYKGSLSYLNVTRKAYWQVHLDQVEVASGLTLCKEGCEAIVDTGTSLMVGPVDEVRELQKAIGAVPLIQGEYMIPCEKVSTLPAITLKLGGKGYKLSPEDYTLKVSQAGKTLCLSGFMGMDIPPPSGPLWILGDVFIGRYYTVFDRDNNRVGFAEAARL

[5] = read-out: IC50 IP (μM) BACE1 Cell

Row | SMILES | IC50 [3] | IC50 [4] | IC50 [1] | IC50 [2] | IC50 [2, 5]
1 | C[C@]1(c2cc(/C=C(\F)c3cnc(C#N)cn3)ccc2F)N=C(N)S[C@@]2(C(=O)N3CCCC3)C[C@H]21 [Example 204, 5-((Z)-2-(3-((1S,5S,6S)-3-amino-5-methyl-1-(pyrrolidine-1-carbonyl)-2-thia-4-azabicyclo[4.1.0]hept-3-en-5-yl)-4-fluorophenyl)-1-fluorovinyl)pyrazine-2-carbonitrile] | 0.048 µM | – | 0.001 µM | 0.003 µM | –
2 | C#C[C@H](C)Oc1cnc(/C(F)=C/c2ccc(F)c([C@@]3(C)N=C(N)S[C@@]4(C(C)=O)C[C@H]43)c2)cn1 [Example 237, 1-((1S,5S,6S)-3-amino-5-(5-((Z)-2-(5-((S)-but-3-yn-2-yloxy)pyrazin-2-yl)-2-fluorovinyl)-2-fluorophenyl)-5-methyl-2-thia-4-azabicyclo[4.1.0]hept-3-en-1-yl)ethanone] | 0.438 µM | – | 0.0032 µM | – | 0.0339 µM
3 | Cc1cc(C#N)cnc1/C(F)=C/c1ccc(F)c([C@@]2(C)N=C(N)S[C@@]3(C(=O)N4CCOCC4)C[C@H]32)c1 [Example 160, 6-((Z)-2-(3-((1S,5S,6S)-3-amino-5-methyl-1-(morpholine-4-carbonyl)-2-thia-4-azabicyclo[4.1.0]hept-3-en-5-yl)-4-fluorophenyl)-1-fluorovinyl)-5-methylnicotinonitrile] | 0.0891 µM | – | 0.00734 µM | 0.0149 µM | –
4 | C[C@]1(c2cc(/C=C(\F)c3cnc(C#N)cn3)ccc2F)N=C(N)S[C@@]2(C(=O)N3CC[C@@H](F)C3)C[C@H]21 [Example 203, 5-((Z)-2-(3-((1S,5S,6S)-3-amino-1-((R)-3-fluoropyrrolidine-1-carbonyl)-5-methyl-2-thia-4-azabicyclo[4.1.0]hept-3-en-5-yl)-4-fluorophenyl)-1-fluorovinyl)pyrazine-2-carbonitrile] | 0.045 µM | – | 0.001 µM | – | 0.001 µM
5 | C[C@]1(c2cc(/C=C(\F)c3ccc(C#N)cn3)cnc2F)N=C(N)S[C@@]2(C(=O)N3[C@H]4COC[C@@H]3COC4)C[C@H]21 [Example 298, 6-((Z)-2-(5-((1S,5S,6S)-3-amino-1-((1R,5R)-3,7-dioxa-9-azabicyclo[3.3.1]nonane-9-carbonyl)-5-methyl-2-thia-4-azabicyclo[4.1.0]hept-3-en-5-yl)-6-fluoropyridin-3-yl)-1-fluorovinyl)nicotinonitrile] | – | – | – | 0.0173 µM | –
6 | COc1ncc(/C=C(\F)c2ccc(C#N)cn2)cc1[C@@]1(C)N=C(N)S[C@@]2(C(=O)N3CC[C@@H](F)C3)C[C@H]21 [Example 184, 6-((Z)-2-(5-((1S,5S,6S)-3-amino-1-((R)-3-fluoropyrrolidine-1-carbonyl)-5-methyl-2-thia-4-azabicyclo[4.1.0]hept-3-en-5-yl)-6-methoxypyridin-3-yl)-1-fluorovinyl)nicotinonitrile] | 0.34 µM | 125 µM | – | – | 0.014 µM
7 | CNC(=O)[C@]12C[C@H]1[C@@](C)(c1cc(/C=C(\F)c3cc4c(cn3)OCCO4)ccc1F)N=C(N)S2 [Example 249, (1S,5S,6S)-3-amino-5-(5-((Z)-2-(2,3-dihydro-[1,4]dioxino[2,3-c]pyridin-7-yl)-2-fluorovinyl)-2-fluorophenyl)-N,5-dimethyl-2-thia-4-azabicyclo[4.1.0]hept-3-ene-1-carboxamide] | – | – | – | 0.336 µM | –
8 | COC[C@]12C[C@H]1[C@@](C)(c1cc(/C=C(\F)c3ccc(C#N)cn3)ccc1F)N=C(N)S2 [Example 293, 6-((Z)-2-(3-((1S,5S,6S)-3-amino-1-(methoxymethyl)-5-methyl-2-thia-4-azabicyclo[4.1.0]hept-3-en-5-yl)-4-fluorophenyl)-1-fluorovinyl)nicotinonitrile] | 0.192 µM | 400 µM | 0.0165 µM | – | –
9 | C[C@]1(c2cc(/C=C(\F)c3ccc(C#N)cn3)cnc2F)N=C(N)S[C@@]2(C(=O)N3CCOCC3)C[C@H]21 [Example 183, 6-((Z)-2-(5-((1S,5S,6S)-3-amino-5-methyl-1-(morpholine-4-carbonyl)-2-thia-4-azabicyclo[4.1.0]hept-3-en-5-yl)-6-fluoropyridin-3-yl)-1-fluorovinyl)nicotinonitrile] | 0.241 µM | 2140 µM | – | – | –
10 | CN(C)C(=O)[C@]12C[C@H]1[C@@](C)(c1cc(/C=C(\F)c3ccc(Cl)cn3)cnc1F)N=C(N)S2 [Example 178, (1S,5S,6S)-3-amino-5-(5-((Z)-2-(5-chloropyridin-2-yl)-2-fluorovinyl)-2-fluoropyridin-3-yl)-N,N,5-trimethyl-2-thia-4-azabicyclo[4.1.0]hept-3-ene-1-carboxamide] | 0.00574 µM | 609 µM | – | – | –
11 | C[C@]1(c2cc(/C=C(\F)c3ccc(C#N)cn3)ccc2F)N=C(N)S[C@@]2(C(=O)N3CC4CC3CO4)C[C@H]21 (stereo partly drawn) [Example 132, 6-((Z)-2-(3-((1S,5S,6S)-3-amino-1-(2-oxa-5-azabicyclo[2.2.1]heptane-5-carbonyl)-5-methyl-2-thia-4-azabicyclo[4.1.0]hept-3-en-5-yl)-4-fluorophenyl)-1-fluorovinyl)nicotinonitrile] | 0.0758 µM | 1690 µM | – | – | –
12 | C#CCOc1cnc(/C(F)=C/c2ccc(F)c([C@@]3(C)N=C(N)S[C@@]4(C(=O)N(C)C)C[C@H]43)c2)cn1 [Example 153, (1S,5S,6S)-3-amino-5-(2-fluoro-5-((Z)-2-fluoro-2-(5-(prop-2-yn-1-yloxy)pyrazin-2-yl)vinyl)phenyl)-N,N,5-trimethyl-2-thia-4-azabicyclo[4.1.0]hept-3-ene-1-carboxamide] | 0.0518 µM | 106 µM | – | – | –
13 | COC(=O)[C@]12C[C@H]1[C@@](C)(c1cc(/C=C(\F)c3cnc(Br)cn3)ccc1F)N=C(N)S2 [Example 148, (1S,5S,6S)-methyl 3-amino-5-(5-((Z)-2-(5-bromopyrazin-2-yl)-2-fluorovinyl)-2-fluorophenyl)-5-methyl-2-thia-4-azabicyclo[4.1.0]hept-3-ene-1-carboxylate] | 1.03 µM | 231 µM | – | – | –
14 | C#CCOc1cnc(/C(F)=C/c2ccc(F)c([C@@]3(C)N=C(N)S[C@@]4(COC)C[C@H]43)c2)cn1 [Example 262, (1S,5S,6S)-5-(2-fluoro-5-((Z)-2-fluoro-2-(5-(prop-2-yn-1-yloxy)pyrazin-2-yl)vinyl)phenyl)-1-(methoxymethyl)-5-methyl-2-thia-4-azabicyclo[4.1.0]hept-3-en-3-amine] | 0.694 µM | 317 µM | – | – | –
15 | C[C@]1(c2cc(/C=C(\F)c3cnc(C#N)cn3)ccc2F)N=C(N)S[C@]2(CO)[C@H]1C2(F)F [Example 254, 5-((Z)-2-(3-((1S,5S,6R)-3-amino-7,7-difluoro-1-(hydroxymethyl)-5-methyl-2-thia-4-azabicyclo[4.1.0]hept-3-en-5-yl)-4-fluorophenyl)-1-fluorovinyl)pyrazine-2-carbonitrile trifluoromethyl acetate] | – | – | – | – | 0.0894 µM
16 | C[C@]1(c2cc(/C=C(\F)c3cnc(C#N)cn3)ccc2F)N=C(N)S[C@@]2(C(=O)N3CCOCC3)C[C@H]21 [Example 200, 5-((Z)-2-(3-((1S,5S,6S)-3-amino-5-methyl-1-(morpholine-4-carbonyl)-2-thia-4-azabicyclo[4.1.0]hept-3-en-5-yl)-4-fluorophenyl)-1-fluorovinyl)pyrazine-2-carbonitrile] | – | – | 0.001 µM | 0.004 µM | –
17 | C[C@]1(c2cc(/C=C(\F)c3ccc(C#N)cn3)ccc2F)N=C(N)S[C@@]2(C(=O)N3CCN(CC4CC4)CC3)C[C@H]21 [Example 141, 6-((Z)-2-(3-((1S,5S,6S)-3-amino-1-(4-(cyclopropylmethyl)piperazine-1-carbonyl)-5-methyl-2-thia-4-azabicyclo[4.1.0]hept-3-en-5-yl)-4-fluorophenyl)-1-fluorovinyl)nicotinonitrile] | 0.336 µM | 400 µM | – | – | –

Now from value to molecule, other results behind:

Row | IC50 [3] | IC50 [4] | SMILES | IC50 [1] | IC50 [2] | IC50 [2, 5]
18 | 1.56 µM | 52.6 µM | C[C@]1(c2cc(/C=C(\F)c3cnc(N4CCC4)cn3)ccc2F)N=C(N)S[C@@]2(C(=O)N3CCOCC3)C[C@H]21 [Example 351, ((1S,5S,6S)-3-amino-5-(5-((Z)-2-(5-(azetidin-1-yl)pyrazin-2-yl)-2-fluorovinyl)-2-fluorophenyl)-5-methyl-2-thia-4-azabicyclo[4.1.0]hept-3-en-1-yl)(morpholino)methanone] | – | – | –
19 | 1.84 µM | 120 µM | COC[C@]12C[C@H]1[C@@](C)(c1cc(/C=C(\F)c3cnc(OCC4CCC4)cn3)ccc1F)N=C(N)S2 [Example 271] | – | – | –
20 | 0.041 µM | 434 µM | C[C@@]1(O)CCN(C(=O)[C@]23C[C@H]2[C@@](C)(c2cc(/C=C(\F)c4ccc(C#N)cn4)ccc2F)N=C(N)S3)C1 (single isomer, unassigned) [Example 310] | – | – | –
21 | 0.115 µM | 84.1 µM | C[C@]1(c2cc(/C=C(\F)c3ccc(C#N)cn3)cnc2F)N=C(N)S[C@@]2(C(=O)N3CCC(F)(F)CC3)C[C@H]21 [Example 260, 6-((Z)-2-(5-((1S,5S,6S)-3-amino-1-(4,4-difluoropiperidine-1-carbonyl)-5-methyl-2-thia-4-azabicyclo[4.1.0]hept-3-en-5-yl)-6-fluoropyridin-3-yl)-1-fluorovinyl)nicotinonitrile] | – | – | –
22 | 0.007 µM | 401 µM | C[C@]1(O)CCN(C(=O)[C@]23C[C@H]2[C@@](C)(c2cc(/C=C(\F)c4ccc(C#N)cn4)ccc2F)N=C(N)S3)C1 [Example 309, 6-((Z)-2-(3-((1S,5S,6S)-3-amino-1-((S)-3-hydroxy-3-methylpyrrolidine-1-carbonyl)-5-methyl-2-thia-4-azabicyclo[4.1.0]hept-3-en-5-yl)-4-fluorophenyl)-1-fluorovinyl)nicotinonitrile] | – | – | –
23 | 1.32 µM | 199 µM | COC[C@]12C[C@H]1[C@@](C)(c1cc(/C=C(\F)c3cnc(OCC4CC(F)(F)C4)cn3)ccc1F)N=C(N)S2 [Example 278] | – | – | –
